Results taken from PMC8359193, “Summary of reference chemicals evaluated by the fish short‐term reproduction assay, OECD TG229, using Japanese Medaka, Oryzias latipes” (Journal of Applied Toxicology, 2021).

Test system: Japanese medaka (Oryzias latipes)
Assay: Fish short-term reproduction assay (FSTRA, OECD TG229), 21-day flow-through exposure
Conditions: for Fertility rate (%) / Mortality (%) Female / Mortality (%) Male / Number of fertilized eggs / Number of total eggs / SSC Female / VTG (ng/mg of liver) Female / VTG (ng/mg of liver) Male / SSC Male: 21 days; for GSI Female / GSI Male / HSI Female / HSI Male / Length Female / Length Male / Weight Female / Weight Male: at completion of exposure; for effect on fecundity (number of total eggs), in words: within the test concentrations
How it was run: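 Japanese medaka (NIES-R strain, 16 ± 2 weeks old) were exposed in flow-through tanks for 3 weeks, three males and three females per tank, four replicate tanks per group, with a dilution water control. Concentrations were spaced by a factor of 2–5. Eggs were collected daily and counted as fertilized or unfertilized.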

SMILES: Cc1cc(O)ccc1Cl [CMP, 4‐Chloro‐3‐methylphenol]
- LOEC on VTG induction in male (in molarity) (hepatic VTG, 21-day exposure): 7.4 µM
- LOEC (in molarity) for male VTG: times higher than that of E2 (in vivo): 110,000 times
- Fertility rate (%) (measured conc. 108 μg/L): 94%
- Mortality (%) Female (measured conc. 108 μg/L): 0%
- Mortality (%) Male (measured conc. 108 μg/L): 0%
- Number of fertilized eggs (measured conc. 108 μg/L): 24
- Number of total eggs (measured conc. 108 μg/L): 26 ± 3.2 /female/day
- SSC Female (measured conc. 108 μg/L): 0 ± 0
- VTG (ng/mg of liver) Female (measured conc. 108 μg/L): 2,610 ± 265 ng/mg of liver
- VTG (ng/mg of liver) Male (measured conc. 108 μg/L): 2.9 ± 4.4 ng/mg of liver
- GSI Female (measured conc. 108 μg/L): 9.9%
- GSI Male (measured conc. 108 μg/L): 0.80%
- HSI Female (measured conc. 108 μg/L): 3.9%
- HSI Male (measured conc. 108 μg/L): 1.9%
- Length Female (measured conc. 108 μg/L): 36.5 mm
- Length Male (measured conc. 108 μg/L): 36.0 mm
- Weight Female (measured conc. 108 μg/L): 565 mg
- Weight Male (measured conc. 108 μg/L): 498 mg
- Fertility rate (%) (measured conc. 350 μg/L): 94%
- Mortality (%) Female (measured conc. 350 μg/L): 0%
- Mortality (%) Male (measured conc. 350 μg/L): 0%
- Number of fertilized eggs (measured conc. 350 μg/L): 24
- Number of total eggs (measured conc. 350 μg/L): 25 ± 3.9 /female/day
- SSC Female (measured conc. 350 μg/L): 0 ± 0
- VTG (ng/mg of liver) Female (measured conc. 350 μg/L): 2,650 ± 214 ng/mg of liver
- VTG (ng/mg of liver) Male (measured conc. 350 μg/L): 9.9 ± 18.3 ng/mg of liver
- GSI Female (measured conc. 350 μg/L): 9.8%
- GSI Male (measured conc. 350 μg/L): 0.68%
- HSI Female (measured conc. 350 μg/L): 4.4%
- HSI Male (measured conc. 350 μg/L): 2.4%
- Length Female (measured conc. 350 μg/L): 35.4 mm
- Length Male (measured conc. 350 μg/L): 36.4 mm
- Weight Female (measured conc. 350 μg/L): 509 mg
- Weight Male (measured conc. 350 μg/L): 529 mg
- Fertility rate (%) (measured conc. 1,060 μg/L): 93%
- Mortality (%) Female (measured conc. 1,060 μg/L): 8.3%
- Mortality (%) Male (measured conc. 1,060 μg/L): 0%
- Number of fertilized eggs (measured conc. 1,060 μg/L): 23
- Number of total eggs (measured conc. 1,060 μg/L): 25 ± 2.3 /female/day
- SSC Female (measured conc. 1,060 μg/L): 0 ± 0
- VTG (ng/mg of liver) Female (measured conc. 1,060 μg/L): 3,020 ± 702 ng/mg of liver
- VTG (ng/mg of liver) Male (measured conc. 1,060 μg/L): 33.8 ± 37.0 ng/mg of liver
- GSI Female (measured conc. 1,060 μg/L): 9.9%
- GSI Male (measured conc. 1,060 μg/L): 0.74%
- HSI Female (measured conc. 1,060 μg/L): 3.9%
- HSI Male (measured conc. 1,060 μg/L): 2.0%
- Length Female (measured conc. 1,060 μg/L): 35.2 mm
- Length Male (measured conc. 1,060 μg/L): 36.3 mm
- Weight Female (measured conc. 1,060 μg/L): 509 mg
- Weight Male (measured conc. 1,060 μg/L): 505 mg
- effect on fecundity (number of total eggs), in words (21-day exposure): No effect

SMILES: C#C[C@]1(O)CC[C@H]2[C@@H]3CCc4cc(O)ccc4[C@H]3CC[C@@]21C [EE2, 17α‐Ethynylestradiol]
- LOEC on VTG induction in male (in molarity) (hepatic VTG, 21-day exposure): 6e-05 µM
- LOEC for VTG induction in males (hepatic VTG, 21-day exposure, measured conc.): 17.8 ng/L
- effect on male GSI, in words (highest concentration, 21-day exposure): significant decreasing
- LOEC on male VTG induction: times smaller than the LOEC for CMP (in vivo): more than 8,000 times
- Fertility rate (%) (measured conc. 17.8 ng/L): 84%
- Mortality (%) Female (measured conc. 17.8 ng/L): 0%
- Mortality (%) Male (measured conc. 17.8 ng/L): 0%
- Number of fertilized eggs (measured conc. 17.8 ng/L): 15
- Number of total eggs (measured conc. 17.8 ng/L): 18 ± 2.3 /female/day
- SSC Female (measured conc. 17.8 ng/L): 0 ± 0
- SSC Male (measured conc. 17.8 ng/L): 90 ± 8.1
- VTG (ng/mg of liver) Female (measured conc. 17.8 ng/L): 2,170 ± 223 ng/mg of liver
- VTG (ng/mg of liver) Male (measured conc. 17.8 ng/L): 68.3 ± 80.4 ng/mg of liver
- GSI Female (measured conc. 17.8 ng/L): 10.0%
- GSI Male (measured conc. 17.8 ng/L): 0.75%
- HSI Female (measured conc. 17.8 ng/L): 4.2%
- HSI Male (measured conc. 17.8 ng/L): 2.3%
- Length Female (measured conc. 17.8 ng/L): 35.4 mm
- Length Male (measured conc. 17.8 ng/L): 35.9 mm
- Weight Female (measured conc. 17.8 ng/L): 516 mg
- Weight Male (measured conc. 17.8 ng/L): 531 mg
- Fertility rate (%) (measured conc. 84.9 ng/L): 88%
- Mortality (%) Female (measured conc. 84.9 ng/L): 0%
- Mortality (%) Male (measured conc. 84.9 ng/L): 0%
- Number of fertilized eggs (measured conc. 84.9 ng/L): 15
- Number of total eggs (measured conc. 84.9 ng/L): 17 ± 4.9 /female/day
- SSC Female (measured conc. 84.9 ng/L): 0 ± 0
- SSC Male (measured conc. 84.9 ng/L): 88 ± 5.7
- VTG (ng/mg of liver) Female (measured conc. 84.9 ng/L): 3,840 ± 1,370 ng/mg of liver
- VTG (ng/mg of liver) Male (measured conc. 84.9 ng/L): 10,900 ± 3,840 ng/mg of liver
- GSI Female (measured conc. 84.9 ng/L): 9.5%
- GSI Male (measured conc. 84.9 ng/L): 0.60%
- HSI Female (measured conc. 84.9 ng/L): 3.7%
- HSI Male (measured conc. 84.9 ng/L): 2.7%
- Length Female (measured conc. 84.9 ng/L): 35.8 mm
- Length Male (measured conc. 84.9 ng/L): 36.3 mm
- Weight Female (measured conc. 84.9 ng/L): 498 mg
- Weight Male (measured conc. 84.9 ng/L): 548 mg
- Fertility rate (%) (measured conc. 424 ng/L): 73%
- Mortality (%) Female (measured conc. 424 ng/L): 8%
- Mortality (%) Male (measured conc. 424 ng/L): 33%
- Number of fertilized eggs (measured conc. 424 ng/L): 8
- Number of total eggs (measured conc. 424 ng/L): 10 ± 2.8 /female/day
- SSC Female (measured conc. 424 ng/L): 0 ± 0
- SSC Male (measured conc. 424 ng/L): 86 ± 6.7
- VTG (ng/mg of liver) Female (measured conc. 424 ng/L): 15,100 ± 4,290 ng/mg of liver
- VTG (ng/mg of liver) Male (measured conc. 424 ng/L): 23,900 ± 3,760 ng/mg of liver
- GSI Female (measured conc. 424 ng/L): 10.4%
- GSI Male (measured conc. 424 ng/L): 0.33%
- HSI Female (measured conc. 424 ng/L): 3.8%
- HSI Male (measured conc. 424 ng/L): 3.4%
- Length Female (measured conc. 424 ng/L): 35.3 mm
- Length Male (measured conc. 424 ng/L): 35.1 mm
- Weight Female (measured conc. 424 ng/L): 507 mg
- Weight Male (measured conc. 424 ng/L): 531 mg
- effect on fecundity (number of total eggs), in words (21-day exposure): significant decrease

SMILES: C[C@]12C=CC3=C4CCC(=O)C=C4CC[C@H]3[C@@H]1CC[C@@H]2O [TRB, 17β‐Trenbolone]
- LOEC on female SSC (papillary process formation on anal fin) (21-day exposure, measured conc.): 26.8 ng/L
- Fertility rate (%) (measured conc. 8.03 ng/L): 95%
- Mortality (%) Female (measured conc. 8.03 ng/L): 0%
- Mortality (%) Male (measured conc. 8.03 ng/L): 0%
- Number of fertilized eggs (measured conc. 8.03 ng/L): 26
- Number of total eggs (measured conc. 8.03 ng/L): 27 ± 3.5 /female/day
- SSC Female (measured conc. 8.03 ng/L): 0 ± 0
- SSC Male (measured conc. 8.03 ng/L): 86 ± 3.9
- VTG (ng/mg of liver) Female (measured conc. 8.03 ng/L): 736 ± 147 ng/mg of liver
- VTG (ng/mg of liver) Male (measured conc. 8.03 ng/L): 3.7 ± 3.2 ng/mg of liver
- GSI Female (measured conc. 8.03 ng/L): 9.7%
- GSI Male (measured conc. 8.03 ng/L): 1.04%
- HSI Female (measured conc. 8.03 ng/L): 5.4%
- HSI Male (measured conc. 8.03 ng/L): 1.8%
- Length Female (measured conc. 8.03 ng/L): 36.4 mm
- Length Male (measured conc. 8.03 ng/L): 36.7 mm
- Weight Female (measured conc. 8.03 ng/L): 573 mg
- Weight Male (measured conc. 8.03 ng/L): 502 mg
- Fertility rate (%) (measured conc. 26.8 ng/L): 93%
- Mortality (%) Female (measured conc. 26.8 ng/L): 0%
- Mortality (%) Male (measured conc. 26.8 ng/L): 0%
- Number of fertilized eggs (measured conc. 26.8 ng/L): 22
- Number of total eggs (measured conc. 26.8 ng/L): 24 ± 2.6 /female/day
- SSC Female (measured conc. 26.8 ng/L): 6.6 ± 6.1
- SSC Male (measured conc. 26.8 ng/L): 101 ± 17
- VTG (ng/mg of liver) Female (measured conc. 26.8 ng/L): 696 ± 211 ng/mg of liver
- VTG (ng/mg of liver) Male (measured conc. 26.8 ng/L): 6.5 ± 3.8 ng/mg of liver
- GSI Female (measured conc. 26.8 ng/L): 11.3%
- GSI Male (measured conc. 26.8 ng/L): 1.06%
- HSI Female (measured conc. 26.8 ng/L): 5.5%
- HSI Male (measured conc. 26.8 ng/L): 2.1%
- Length Female (measured conc. 26.8 ng/L): 35.6 mm
- Length Male (measured conc. 26.8 ng/L): 37.3 mm
- Weight Female (measured conc. 26.8 ng/L): 515 mg
- Weight Male (measured conc. 26.8 ng/L): 500 mg
- Fertility rate (%) (measured conc. 84.6 ng/L): 90%
- Mortality (%) Female (measured conc. 84.6 ng/L): 0%
- Mortality (%) Male (measured conc. 84.6 ng/L): 0%
- Number of fertilized eggs (measured conc. 84.6 ng/L): 9.1
- Number of total eggs (measured conc. 84.6 ng/L): 10 ± 2.4 /female/day
- SSC Female (measured conc. 84.6 ng/L): 48 ± 6.7
- SSC Male (measured conc. 84.6 ng/L): 104 ± 8.1
- VTG (ng/mg of liver) Female (measured conc. 84.6 ng/L): 658 ± 102 ng/mg of liver
- VTG (ng/mg of liver) Male (measured conc. 84.6 ng/L): 4.9 ± 4.3 ng/mg of liver
- GSI Female (measured conc. 84.6 ng/L): 16.1%
- GSI Male (measured conc. 84.6 ng/L): 1.11%
- HSI Female (measured conc. 84.6 ng/L): 3.7%
- HSI Male (measured conc. 84.6 ng/L): 2.1%
- Length Female (measured conc. 84.6 ng/L): 36.1 mm
- Length Male (measured conc. 84.6 ng/L): 37.7 mm
- Weight Female (measured conc. 84.6 ng/L): 625 mg
- Weight Male (measured conc. 84.6 ng/L): 524 mg
- Fertility rate (%) (measured conc. 291 ng/L): 74%
- Mortality (%) Female (measured conc. 291 ng/L): 0%
- Mortality (%) Male (measured conc. 291 ng/L): 0%
- Number of fertilized eggs (measured conc. 291 ng/L): 0.9
- Number of total eggs (measured conc. 291 ng/L): 1.2 ± 0.5 /female/day
- SSC Female (measured conc. 291 ng/L): 76 ± 3.9
- SSC Male (measured conc. 291 ng/L): 103 ± 8.4
- VTG (ng/mg of liver) Female (measured conc. 291 ng/L): 641 ± 200 ng/mg of liver
- VTG (ng/mg of liver) Male (measured conc. 291 ng/L): 4.5 ± 2.1 ng/mg of liver
- GSI Female (measured conc. 291 ng/L): 18.8%
- GSI Male (measured conc. 291 ng/L): 1.10%
- HSI Female (measured conc. 291 ng/L): 3.4%
- HSI Male (measured conc. 291 ng/L): 1.8%
- Length Female (measured conc. 291 ng/L): 37.3 mm
- Length Male (measured conc. 291 ng/L): 37.0 mm
- Weight Female (measured conc. 291 ng/L): 691 mg
- Weight Male (measured conc. 291 ng/L): 504 mg
- effect on fecundity (number of total eggs), in words (21-day exposure): significantly reduced
